In assay [1] the target is T1, Nociceptin receptor (Homo sapiens, UniProt P41146). Description: Partial agonist activity at human ORL1 receptor expressed in African green monkey COS7 cells after 90 mins by topcount analysis. The class given is cell-based. The settings on record: COS-7.
In assay [2] the target is T1, Nociceptin receptor. The assay is described as follows: Displacement of [3H]]nociceptin from human ORL1 receptor low affinity binding site expressed in African green monkey COS7 cells after 90 mins by topcount analysis. (In general: Loss of bound radioactivity is the signal in a displacement assay; it reports binding, not function.)
For assay [3], the target named is T1, Nociceptin receptor. Description: Displacement of [3H]]nociceptin from human ORL1 receptor high affinity binding site expressed in African green monkey COS7 cells after 90 mins by topcount analysis.
Assay [4] concerns the target T1, Nociceptin receptor. The assay is described as follows: Binding affinity to human ORL1 receptor expressed in African green monkey COS7 cells assessed per mg protein after 90 mins by Scatchard plot analysis. The class given is cell-based, COS-7.
Assay [5] deals with T1, Nociceptin receptor. The assay is described as follows: Displacement of [3H]]nociceptin from human ORL1 receptor expressed in African green monkey COS7 cells after 90 mins by topcount analysis. The assay is classed as cell-based, COS-7.
In assay [6] the target is T1, Nociceptin receptor. Description: Displacement of [3H]isoVa-RYYRIK-NH2 from human ORL1 receptor expressed in African green monkey COS7 cells after 90 mins by topcount analysis. The class given is cell-based, COS-7.

Results on 5 compounds are retold here after ChEMBL document CHEMBL3351468, “Tritium-labelled isovaleryl-RYYRIK-NH2 as potential antagonist probe for ORL1 nociceptin receptor” (Bioorg Med Chem, 2014).

The IC50 is the point on the concentration scale where inhibition reaches its midpoint. Broadly, the Kd is the concentration at which binding is half-saturated.

Each structure is given as a SMILES string.

T1 sequence (P41146 whole entry): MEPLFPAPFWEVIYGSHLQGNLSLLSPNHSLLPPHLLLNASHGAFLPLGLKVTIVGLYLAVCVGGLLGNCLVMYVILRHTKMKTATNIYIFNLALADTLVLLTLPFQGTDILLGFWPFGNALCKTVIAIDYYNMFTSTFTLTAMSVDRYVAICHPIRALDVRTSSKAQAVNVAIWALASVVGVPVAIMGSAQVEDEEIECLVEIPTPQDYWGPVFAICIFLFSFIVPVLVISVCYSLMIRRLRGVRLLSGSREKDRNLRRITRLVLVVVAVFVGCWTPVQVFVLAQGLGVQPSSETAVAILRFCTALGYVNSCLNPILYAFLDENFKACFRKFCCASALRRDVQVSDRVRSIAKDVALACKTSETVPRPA

`CC[C@H](C)[C@H](NC(=O)[C@H](CCCNC(=N)N)NC(=O)[C@H](Cc1ccc(O)cc1)NC(=O)[C@H](Cc1ccc(O)cc1)NC(=O)[C@H](CCCNC(=N)N)NC(=O)C(C)C)C(=O)N[C@@H](CCCCN)C(N)=O` showed an Activity in assay [1] of 14%. The IC50 in assay [2] worked out at 1.67 nM; in assay [3] it was 0.059 nM.
Turning to `[3H]C(C(=O)N[C@@H](CCCNC(=N)N)C(=O)N[C@@H](Cc1ccc(O)cc1)C(=O)N[C@@H](Cc1ccc(O)cc1)C(=O)N[C@@H](CCCNC(=N)N)C(=O)N[C@H](C(=O)N[C@@H](CCCCN)C(N)=O)[C@@H](C)CC)C([3H])(C)C` (stereo partly specified), binding in assay [4] was characterised by a dissociation constant (Kd) of 1.21 nM.
As to `CC[C@H](C)[C@H](NC(=O)[C@H](CCCN=C(N)N)NC(=O)[C@H](Cc1ccc(O)cc1)NC(=O)[C@H](Cc1ccc(O)cc1)NC(=O)[C@H](CCCN=C(N)N)NC(C)=O)C(=O)N[C@@H](CCCCN)C(N)=O`, the Activity in assay [1] was determined as 60%.
Compound `CCC(=O)N[C@@H](CCCNC(=N)N)C(=O)N[C@@H](Cc1ccc(O)cc1)C(=O)N[C@@H](Cc1ccc(O)cc1)C(=O)N[C@@H](CCCNC(=N)N)C(=O)N[C@H](C(=O)N[C@@H](CCCCN)C(N)=O)[C@@H](C)CC` came in with an IC50 in assay [5] of 1.39 nM. The compound also displayed an Activity in assay [1] of 46%.
Regarding `CC[C@H](C)[C@H](NC(=O)[C@H](CCCNC(=N)N)NC(=O)[C@H](Cc1ccc(O)cc1)NC(=O)[C@H](Cc1ccc(O)cc1)NC(=O)[C@H](CCCNC(=N)N)NC(=O)CC(C)C)C(=O)N[C@@H](CCCCN)C(N)=O`, the IC50 in assay [6] stood at 2.15 nM; in assay [2], 8.51 nM; in assay [3], 0.033 nM. In addition, the Activity in assay [1] worked out at 0%.
